Series [1] relates to HUVECs (Human umbilical vein endothelial cells). The experiment in a line: Inhibitory effects on HUVEC tube formation.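 As to tube formation: from minus no inhibition up to plus-plus-plus complete inhibition versus vehicle.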 In kind it is cell-based. As to conditions: for inhibitory effect on HUVEC tube formation: 50 uM; for Tube formation: 50 μM. Here is the method: The Inhibitory effects of the compounds of the formula 1 on angiogenesis were meassured by the vascular tube formation assay of HUVECs (Human umbilical vein endothelial cells), which is one of the major angiogenic steps.
HUVECs were isolated from human umbilical vein, and cultured. HUVECs within passage 5 from confluent cultures were detached, and plated onto a layer of a bFGF (basic fibroblast growth factor)-reduced and polymerized Matrigel. Matrigel cultures were incubated with or without the compounds of formula 1, and the changes of cell morphology were captured through a phase contrast microscope and photographed.

Another series relates to SPF SD rats. As to conditions: rat, in vivo, po.

The record followed here is patent US7279497B2, “Benzopyran derivatives substituted with secondary amines including imidazole, their preparation and pharmaceutical compositions containing them” (Korea Research Institute of Chemical Technology, priority 2002, dated 2007).

`COC(OC)[C@]1(C)Oc2ccc([N+](=O)[O-])cc2[C@H](N(Cc2ncc[nH]2)c2ccc(Cl)cc2)[C@H]1O` [Example 3, (2R,3R,4S)-3,4-dihydro-2-dimethoxymethyl-3-hydroxy-2-methyl-6-nitro-4-[N-(4-chlorophenyl)-N-(1H-imidazol-2-ylmethyl)amino]-2H-1-benzopyran]: in series [1], the “inhibitory effect on HUVEC tube formation” value is given as “strongly inhibited” and the Tube formation entry was “++”. Further, in the series with SPF SD rats, the “clinical symptoms, body weight and mortality” value (from here on “clinical symptoms”) is listed as “no significant changes”. Turning to `COC(OC)[C@]1(C)Oc2ccc([N+](=O)[O-])cc2[C@@H](N(Cc2ncc[nH]2)c2ccc(Cl)cc2)[C@@H]1O` [Example 4, (2R,3S,4R)-3,4-dihydro-2-dimethoxymethyl-3-hydroxy-2-methyl-6-nitro-4-[N-(4-chlorophenyl)-N-(1H-imidazol-2-ylmethyl)amino]-2H-1-benzopyran], in series [1], the Tube formation result was “+”. Further, the “clinical symptoms” value in the series on SPF SD rats was “no significant changes”.

For the compound `COC(OC)[C@@]1(C)Oc2ccc([N+](=O)[O-])cc2[C@@H](N(Cc2ncc[nH]2)c2ccc(C(F)(F)F)cc2)[C@@H]1O` [Example 5, (2S,3S,4R)-3,4-dihydro-2-dimethoxymethyl-3-hydroxy-2-methyl-6-nitro-4-[N-(4-trifluoromethylphenyl)-N-(1H-imidazol-2-ylmethyl)amino]-2H-1-benzopyran], in series [1], the “inhibitory effect on HUVEC tube formation” value is reported as “strongly inhibited” and the Tube formation result is reported as “++”. In addition, in the series on SPF SD rats, the “clinical symptoms” value was “no significant changes”. On to `COC(OC)[C@@]1(C)Oc2ccc([N+](=O)[O-])cc2[C@@H](N(Cc2ncc[nH]2)c2ccc(OC(F)(F)F)cc2)[C@@H]1O` [Example 7, (2S,3S,4R)-3,4-dihydro-2-dimethoxymethyl-3-hydroxy-2-methyl-6-nitro-4-[N-(4-trifluoromethoxyphenyl)-N-(1H-imidazol-2-ylmethyl)amino]-2H-1-benzopyran], for which the Tube formation entry in series [1] is given as “+”. The “clinical symptoms” value with SPF SD rats is listed as “no significant changes”. The like results for `COC(OC)[C@@]1(C)Oc2ccc([N+](=O)[O-])cc2[C@@H](N(Cc2ncc[nH]2)c2ccc(Br)cc2)[C@@H]1O` [Example 8, (2S,3S,4R)-3,4-dihydro-2-dimethoxymethyl-3-hydroxy-2-methyl-6-nitro-4-[N-(4-bromophenyl)-N-(1H-imidazol-2-ylmethyl)amino]-2H-1-benzopyran] were, in that order, “+” and “no significant changes”. Regarding `COC(OC)[C@@]1(C)Oc2ccc([N+](=O)[O-])cc2[C@@H](N(Cc2ncc[nH]2)c2ccc(C)cc2C)[C@@H]1O` [Example 9, (2S,3S,4R)-3,4-dihydro-2-dimethoxymethyl-3-hydroxy-2-methyl-6-nitro-4-[N-(2,4-dimethylphenyl)-N-(1H-imidazol-2-ylmethyl)amino]-2H-1-benzopyran], the Tube formation entry in series [1] is “+”. The “clinical symptoms” value in the series with SPF SD rats is on record as “no significant changes”.

Regarding `COC(OC)[C@@]1(C)Oc2ccc([N+](=O)[O-])cc2[C@@H](N(Cc2ncc[nH]2)c2cccc(C)c2C)[C@@H]1O` [Example 11, (2S,3S,4R)-3,4-dihydro-2-dimethoxymethyl-3-hydroxy-2-methyl-6-nitro-4-[N-(2,3-dimethylphenyl)-N-(1H-imidazol-2-ylmethyl)amino]-2H-1-benzopyran], the “clinical symptoms” value with SPF SD rats is listed as “no significant changes”. Same read-out and setting: then `COC(OC)[C@@]1(C)Oc2ccc([N+](=O)[O-])cc2[C@@H](N(Cc2ncc[nH]2)c2ccc(F)cc2)[C@@H]1O` [Example 15, (2S,3S,4R)-3,4-dihydro-2-dimethoxymethyl-3-hydroxy-2-methyl-6-nitro-4-[N-(4-fluorophenyl)-N-(1H-imidazol-2-ylmethyl)amino]-2H-1-benzopyran], with “no significant changes”; and `COc1ccccc1N(Cc1ncc[nH]1)[C@@H]1c2cc([N+](=O)[O-])ccc2O[C@](C)(C(OC)OC)[C@H]1O` [Example 16, (2S,3S,4R)-3,4-dihydro-2-dimethoxymethyl-3-hydroxy-2-methyl-6-nitro-4-[N-(2-methoxyphenyl)-N-(1H-imidazol-2-ylmethyl)amino]-2H-1-benzopyran], with “no significant changes”; and `COC(OC)[C@]1(C)Oc2ccc([N+](=O)[O-])cc2[C@H](N(Cc2ncc[nH]2)c2ccccc2C(C)C)[C@H]1O` [Example 17, (2R,3R,4S)-3,4-dihydro-2-dimethoxymethyl-3-hydroxy-2-methyl-6-nitro-4-[N-(2-isopropylphenyl)-N-(1H-imidazol-2-ylmethyl)amino]-2H-1-benzopyran], with “no significant changes”. Same read-out and setting: with `COc1ccccc1N(Cc1ncc[nH]1)[C@H]1c2cc([N+](=O)[O-])ccc2O[C@@](C)(C(OC)OC)[C@@H]1O` [Example 18, (2R,3R,4S)-3,4-dihydro-2-dimethoxymethyl-3-hydroxy-2-methyl-6-nitro-4-[N-(2-methoxyphenyl)-N-(1H-imidazol-2-ylmethyl)amino]-2H-1-benzopyran] the entry was “no significant changes”; with `COC(OC)[C@]1(C)Oc2ccc([N+](=O)[O-])cc2[C@H](N(Cc2ncc[nH]2)c2cccc(Cl)c2)[C@H]1O` [Example 19, (2R,3R,4S)-3,4-dihydro-2-dimethoxymethyl-3-hydroxy-2-methyl-6-nitro-4-[N-(3-chlorophenyl)-N-(1H-imidazol-2-ylmethyl)amino]-2H-1-benzopyran], “no significant changes”. On the same count and under the same terms, then `COC(OC)[C@@]1(C)Oc2ccc([N+](=O)[O-])cc2[C@@H](N(Cc2ncc[nH]2)c2cccc(Cl)c2)[C@@H]1O` [Example 20, (2S,3S,4R)-3,4-dihydro-2-dimethoxymethyl-3-hydroxy-2-methyl-6-nitro-4-[N-(3-chlorophenyl)-N-(1H-imidazol-2-ylmethyl)amino]-2H-1-benzopyran], with “no significant changes”; and `COC(OC)[C@]1(C)Oc2ccc([N+](=O)[O-])cc2[C@H](N(Cc2ncc[nH]2)c2ccc(OC(F)(F)F)cc2)[C@H]1O` [Example 21, (2R,3R,4S)-3,4-dihydro-2-dimethoxymethyl-3-hydroxy-2-methyl-6-nitro-4-[N-(4-trifluoromethoxyphenyl)-N-(1H-imidazol-2-ylmethyl)amino]-2H-1-benzopyran], with “no significant changes”; and `COC(OC)[C@@]1(C)Oc2ccc(N)cc2[C@@H](N(Cc2ncc[nH]2)c2cccc(C)c2C)[C@@H]1O` [Example 30, (2S,3S,4R)-6-amino-3,4-dihydro-2-dimethoxymethyl-3-hydroxy-2-methyl-4-[N-(2,3-dimethylphenyl)-N-(1H-imidazol-2-ylmethyl)amino]-2H-1-benzopyran], with “no significant changes”. As to `COc1ccccc1N(Cc1ncc[nH]1)[C@@H]1c2cc(N)ccc2O[C@](C)(C(OC)OC)[C@H]1O` [Example 31, (2S,3S,4R)-6-amino-3,4-dihydro-2-dimethoxymethyl-3-hydroxy-2-methyl-4-[N-(2-methoxyphenyl)-N-(1H-imidazol-2-ylmethyl)amino]-2H-1-benzopyran], the “clinical symptoms” value with SPF SD rats is “no significant changes”. Turning to `COc1ccc(N(Cc2ncc[nH]2)[C@@H]2c3cc(N)ccc3O[C@](C)(C(OC)OC)[C@H]2O)cc1` [Example 32, (2S,3S,4R)-6-amino-3,4-dihydro-2-dimethoxymethyl-3-hydroxy-2-methyl-4-[N-(4-methoxyphenyl)-N-(1H-imidazol-2-ylmethyl)amino]-2H-1-benzopyran], the “clinical symptoms” value with SPF SD rats is listed as “no significant changes”. In the case of `COC(OC)[C@@]1(C)Oc2ccc(N)cc2[C@@H](N(Cc2ncc[nH]2)c2ccc(C)cc2C)[C@@H]1O` [Example 33, (2S,3S,4R)-6-amino-3,4-dihydro-2-dimethoxymethyl-3-hydroxy-2-methyl-4-[N-(2,4-dimethylphenyl)-N-(1H-imidazol-2-ylmethyl)amino]-2H-1-benzopyran], the “clinical symptoms” value in the series on SPF SD rats is on record as “no significant changes”. Regarding `COC(OC)[C@@]1(C)Oc2ccc(N)cc2[C@@H](N(Cc2ncc[nH]2)c2ccccc2C(C)C)[C@@H]1O` [Example 34, (2S,3S,4R)-6-amino-3,4-dihydro-2-dimethoxymethyl-3-hydroxy-2-methyl-4-[N-(2-isopropylphenyl)-N-(1H-imidazol-2-ylmethyl)amino]-2H-1-benzopyran], the “clinical symptoms” value with SPF SD rats is given as “no significant changes”. The same measure, in the same setting: then `COC(OC)[C@@]1(C)Oc2ccc(N)cc2[C@@H](N(Cc2ncc[nH]2)c2ccc(OC(F)(F)F)cc2)[C@@H]1O` [Example 35, (2S,3S,4R)-6-amino-3,4-dihydro-2-dimethoxymethyl-3-hydroxy-2-methyl-4-[N-(4-trifluoromethoxyphenyl)-N-(1H-imidazol-2-ylmethyl)amino]-2H-1-benzopyran], with “no significant changes”; and `COC(OC)[C@@]1(C)Oc2ccc(N)cc2[C@@H](N(Cc2ncc[nH]2)c2ccc(Br)cc2)[C@@H]1O` [Example 36, (2S,3S,4R)-6-amino-3,4-dihydro-2-dimethoxymethyl-3-hydroxy-2-methyl-4-[N-(4-bromophenyl)-N-(1H-imidazol-2-ylmethyl)amino]-2H-1-benzopyran], with “no significant changes”; and `COC(OC)[C@@]1(C)Oc2ccc(N)cc2[C@@H](N(Cc2ncc[nH]2)c2ccc(F)cc2)[C@@H]1O` [Example 37, (2S,3S,4R)-6-amino-3,4-dihydro-2-dimethoxymethyl-3-hydroxy-2-methyl-4-[N-(4-fluorophenyl)-N-(1H-imidazol-2-ylmethyl)amino]-2H-1-benzopyran], with “no significant changes”.
